Data published in ChEMBL document CHEMBL1201862, “PubChem BioAssay data set” (2004).
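How tested: cells in 96-well plates exposed to compound for 48 hours at five concentrations. At the GI50, growth is halved.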 Active and inactive are the calls of the source. No stated cut-off is given here; in the data, active = GI50 up to about 1.1 µM and inactive = higher.

Key:
Test in all cases: NCI-60 cell line screen, 48 h
A549 = tested on: A549
CCRF-CEM = tested on: CCRF-CEM
HCC 2998 = tested on: HCC 2998
HL-60 = tested on: HL-60
IGROV-1 = tested on: IGROV-1
KM12 = tested on: KM12
LOX IMVI = tested on: LOX IMVI
MCF7 = tested on: MCF7
NCI/ADR-RES = tested on: NCI/ADR-RES
OVCAR-3 = tested on: OVCAR-3
OVCAR-4 = tested on: OVCAR-4
OVCAR-8 = tested on: OVCAR-8
RPMI-8226 = tested on: RPMI-8226
SF-268 = tested on: SF-268
SW-620 = tested on: SW-620
UACC-62 = tested on: UACC-62
SR = tested on: SR
786-0 = tested on: 786-0

Row | Structure (SMILES) | GI50 (A549) | GI50 (CCRF-CEM) | GI50 (HCC 2998) | GI50 (HL-60) | GI50 (IGROV-1) | GI50 (KM12) | GI50 (LOX IMVI) | GI50 (MCF7) | GI50 (NCI/ADR-RES) | GI50 (OVCAR-3) | GI50 (OVCAR-4) | GI50 (OVCAR-8) | GI50 (RPMI-8226) | GI50 (SF-268) | GI50 (SW-620) | GI50 (UACC-62) | GI50 (SR) | GI50 (786-0)
1 | CC(=O)OCC1OC(n2cc(F)c(=O)[nH]c2=O)C(NC(=O)OCc2ccccc2)C(OC(C)=O)C1OC(C)=O (stereo not drawn) | > 100 µM (inactive) | > 100 µM (inactive) | > 100 µM (inactive) | > 100 µM (inactive) | > 100 µM (inactive) | > 100 µM (inactive) | > 100 µM (inactive) | > 100 µM (inactive) | > 100 µM (inactive) | > 100 µM (inactive) | > 100 µM (inactive) | > 100 µM (inactive) | > 100 µM (inactive) | > 100 µM (inactive) | > 100 µM (inactive) | > 100 µM (inactive) |  | 
2 | O=NN(CCCl)C(=O)NC1CCSc2ccccc21 (stereo not drawn) | > 100 µM (inactive) | 10.3 µM (inactive) | > 100 µM (inactive) | 23.3 µM (inactive) | > 100 µM (inactive) | > 100 µM (inactive) | 82 µM (inactive) | > 100 µM (inactive) | > 100 µM (inactive) | > 100 µM (inactive) | > 100 µM (inactive) | > 100 µM (inactive) | > 61.4 µM (inactive) | 20.9 µM (inactive) | > 100 µM (inactive) | 25 µM (inactive) |  | 
3 | Nc1ncnc2c1ncn2[C@@H]1O[C@H](COP(=O)(O)O)[C@@H](O)[C@@H]1O | > 50 µM (inactive) | > 50 µM (inactive) | > 50 µM (inactive) | 14.6 µM (inactive) | > 50 µM (inactive) | > 50 µM (inactive) | > 50 µM (inactive) | > 50 µM (inactive) | > 24.5 µM (inactive) | > 50 µM (inactive) | > 50 µM (inactive) | 12.9 µM (inactive) | > 50 µM (inactive) | > 50 µM (inactive) | > 50 µM (inactive) | > 50 µM (inactive) |  | 
4 | CCOC(=O)[C@H]1Nc2c(cccc2[N+](=O)[O-])C2c3ccccc3CC21 (stereo partly drawn) | > 100 µM (inactive) |  | > 100 µM (inactive) |  | > 100 µM (inactive) | > 100 µM (inactive) | > 100 µM (inactive) |  |  | 40.8 µM (inactive) | 36.9 µM (inactive) | > 100 µM (inactive) | > 100 µM (inactive) | > 100 µM (inactive) | > 100 µM (inactive) | > 100 µM (inactive) | 59.8 µM (inactive) | 
5 | COc1ccc(/C=N/NC(=O)NCCCN(C)C)cc1 | > 100 µM (inactive) | > 100 µM (inactive) |  | > 100 µM (inactive) | > 100 µM (inactive) | > 100 µM (inactive) | 85.9 µM (inactive) |  |  | > 100 µM (inactive) |  | > 100 µM (inactive) |  | > 100 µM (inactive) | > 100 µM (inactive) | > 100 µM (inactive) |  | 
6 | Nc1nc(SCCC/C=C/I)nc2c1ncn2C1OC(CO)C(O)C1O (stereo not drawn) | > 202 µM (inactive) | 98.4 µM (inactive) |  | > 202 µM (inactive) | > 202 µM (inactive) | > 202 µM (inactive) | > 202 µM (inactive) |  |  | > 202 µM (inactive) | > 202 µM (inactive) | > 202 µM (inactive) | > 202 µM (inactive) | > 202 µM (inactive) | > 202 µM (inactive) | > 202 µM (inactive) | > 202 µM (inactive) | > 202 µM (inactive)
7 | COC1=CC(=O)c2ccccc2C1(C)C1=NC(C)(C)CO1 (stereo not drawn) | > 100 µM (inactive) | > 100 µM (inactive) |  | > 100 µM (inactive) | > 100 µM (inactive) | > 100 µM (inactive) |  |  |  | > 100 µM (inactive) | > 100 µM (inactive) | > 100 µM (inactive) | > 100 µM (inactive) | > 100 µM (inactive) | > 100 µM (inactive) | > 100 µM (inactive) | > 100 µM (inactive) | > 100 µM (inactive)
8 | O=C1C2=C(c3ccccc31)C(c1ccc(Cl)cc1)NC(S)=N2 (stereo not drawn) | 19.4 µM (inactive) | 24.5 µM (inactive) |  | 17.5 µM (inactive) | 19 µM (inactive) | 23.6 µM (inactive) |  |  |  | 20.1 µM (inactive) | 15.5 µM (inactive) | 20 µM (inactive) | 20.3 µM (inactive) | 17.4 µM (inactive) | 20.5 µM (inactive) | 23 µM (inactive) |  | 17.9 µM (inactive)
9 | Nc1ccc2[nH]c3c(-c4ccccc4)nccc3c2c1 | 48.9 µM (inactive) | 14.1 µM (inactive) | 28.8 µM (inactive) | 12 µM (inactive) | 57.4 µM (inactive) | 53.7 µM (inactive) | 28.9 µM (inactive) | > 45.1 µM (inactive) | 24 µM (inactive) | 56.9 µM (inactive) | 23.7 µM (inactive) | 72.3 µM (inactive) | 20.3 µM (inactive) | > 100 µM (inactive) | 65.8 µM (inactive) | 29.2 µM (inactive) |  | 
10 | C=C1C(=O)C[C@@]23CCC[C@@]12CC(O)C3 (stereo partly drawn) | 30.3 µM (inactive) | 10.3 µM (inactive) | > 46.2 µM (inactive) | 19.5 µM (inactive) | 3.93 µM (inactive) | 20.8 µM (inactive) | 14.6 µM (inactive) | 16.7 µM (inactive) | 13.4 µM (inactive) | 13.1 µM (inactive) | 18.6 µM (inactive) | 32.7 µM (inactive) | 15.6 µM (inactive) | 43.7 µM (inactive) | 18.7 µM (inactive) | 13.6 µM (inactive) |  | 
11 | CCCCCC/C(CC(=O)CCC(=O)NCCc1ccccc1)=N\NC(=O)c1ccc2ccccc2c1O | 48.2 µM (inactive) | 10.3 µM (inactive) | 53.3 µM (inactive) | 7.78 µM (inactive) | 33.7 µM (inactive) | 35.1 µM (inactive) | 17.7 µM (inactive) |  |  | 28.8 µM (inactive) | 37.8 µM (inactive) | 29.4 µM (inactive) | 46 µM (inactive) | 22.6 µM (inactive) | 52.7 µM (inactive) | 22 µM (inactive) |  | 31.6 µM (inactive)
12 | CCOC(=O)c1ccc(N[C@@H]2c3cc4c(cc3C(c3cc(OC)c(O)c(OC)c3)[C@H]3C(=O)OCC32)OCO4)cc1O (stereo partly drawn) | 0.0946 µM (active) | 0.211 µM (active) | 1.92 µM (inactive) | 0.133 µM (active) | 2.68 µM (inactive) | 0.579 µM (active) | 0.185 µM (active) | 0.723 µM (active) | 4.43 µM (inactive) | 2.43 µM (inactive) | 7.69 µM (inactive) | 1.77 µM (inactive) | 0.94 µM (active) | 0.789 µM (active) | 0.942 µM (active) | 0.469 µM (active) |  | 
13 | [N-]=[N+]=CC(=O)c1ccccc1C#CCCc1ccccc1 | 27.2 µM (inactive) | 10.9 µM (inactive) | 31.8 µM (inactive) | 8.05 µM (inactive) | 36.9 µM (inactive) | 41.2 µM (inactive) | 30.1 µM (inactive) |  |  | 20.2 µM (inactive) | 44.2 µM (inactive) | 27.8 µM (inactive) | 14 µM (inactive) |  | 32.7 µM (inactive) | 18.6 µM (inactive) | 28.2 µM (inactive) | 
14 | Nc1nc(Cl)cc(NCCCCCCCCCCCCNc2cc(Cl)nc(N)n2)n1 | 7.45 µM (inactive) | 1.69 µM (inactive) | 38.5 µM (inactive) | 1.14 µM (inactive) | 15.8 µM (inactive) | 83 µM (inactive) | 0.0869 µM (active) |  |  | 11.1 µM (inactive) | 4.36 µM (inactive) | 10.1 µM (inactive) | > 100 µM (inactive) | 28.2 µM (inactive) | 28.8 µM (inactive) | 6.84 µM (inactive) | 1.99 µM (inactive) | 
15 | O=C(Nc1cccc(C(F)(F)F)c1)C(=O)C(C(=O)c1ccc(Cl)c(Cl)c1)C1OC(=O)c2ccccc21 (stereo not drawn) | 44.2 µM (inactive) | 28.4 µM (inactive) | 28.5 µM (inactive) | 29.4 µM (inactive) | 39.6 µM (inactive) | 47.2 µM (inactive) | 27.3 µM (inactive) |  |  | 32.1 µM (inactive) | 40 µM (inactive) | 26.5 µM (inactive) | 56 µM (inactive) | 37.9 µM (inactive) | 38.1 µM (inactive) | 28.6 µM (inactive) | 15.4 µM (inactive) | 37.7 µM (inactive)
16 | [N-]=[N+]=CC(=O)OCC(N)C(=O)O (stereo not drawn) | 0.557 µM (active) | 0.222 µM (active) | 0.362 µM (active) | 0.448 µM (active) | 1.15 µM (inactive) | 0.406 µM (active) | 0.205 µM (active) | 0.217 µM (active) | 2.95 µM (inactive) | 0.841 µM (active) | 14.1 µM (inactive) | 1.32 µM (inactive) | 0.528 µM (active) | 0.685 µM (active) | 0.437 µM (active) | 1.19 µM (inactive) |  | 
17 | CC1(C)CCc2cc3c(cc2O1)OC(C)(C)CC3=O | 75.2 µM (inactive) | 76.6 µM (inactive) |  | 23.4 µM (inactive) | > 100 µM (inactive) | > 100 µM (inactive) | > 100 µM (inactive) |  |  | 27.5 µM (inactive) | 62.8 µM (inactive) | > 100 µM (inactive) | > 100 µM (inactive) | > 100 µM (inactive) | > 100 µM (inactive) | > 100 µM (inactive) | 57.5 µM (inactive) | 
18 | CCCCCC1CC(C(C)=O)CN1c1ccc(F)cc1 (stereo not drawn) | 51.4 µM (inactive) |  | 38.1 µM (inactive) | > 10 µM (inactive) |  | 35.6 µM (inactive) | 28 µM (inactive) |  |  | 28.1 µM (inactive) |  | 32.3 µM (inactive) |  | 32 µM (inactive) | 29.7 µM (inactive) |  | > 10 µM (inactive) | 
19 | CCCCCCCCCCC(C)CCCCCCC(=O)O (stereo not drawn) | > 100 µM (inactive) | > 100 µM (inactive) | > 100 µM (inactive) | > 100 µM (inactive) | > 100 µM (inactive) | > 100 µM (inactive) | > 100 µM (inactive) |  |  | > 100 µM (inactive) | > 100 µM (inactive) | > 100 µM (inactive) | > 100 µM (inactive) | > 100 µM (inactive) | > 100 µM (inactive) | > 100 µM (inactive) | > 100 µM (inactive) | > 100 µM (inactive)
